# Test results: ChEMBL document CHEMBL1123728, “Rational design of 4-[(methylsulfonyl)amino]benzamides as class III antiarrhythmic agents” (J Med Chem, 1987)
# Activity calls are given as the source filed them.
# Assays:
# Canis familiaris [1] = test: Efficacy in blocking sustained ventricular tachycardia (rate>250 bpm) elicited by programmed electrical stimulation in anesthetized dogs after iv administration of dose 0.3 mg/kg; no. of successful exp / total no. of exp = 7/10; type: functional, Canis lupus familiaris, Cardiac ventricle
# Canis familiaris [2] = test: Efficacy in blocking sustained ventricular tachycardia (rate>250 bpm) elicited by programmed electrical stimulation in conscious dogs after iv administration of dose 1 mg/kg; no. of successful exp / total no. of exp = 5/6; type: functional, Canis lupus familiaris, Cardiac ventricle
# Canis familiaris [3] = organism: Canis familiaris; test: Concentration required for 20% increase in the functional refractory period of canine ventricular muscle (extracellular electrophysiology) in vitro was reported;NR=at 10 uM the FRP was increased 13%; settings: Canis lupus familiaris
# Canis familiaris [4] = organism: Canis familiaris; test: Concentration required for 20% increase in action potential duration of canine Purkinje fiber (intracellular electrophysiology) in vitro measured at 95% repolarization was reported. Range is between 0.03-2; type: functional, Canis lupus familiaris
# Canis familiaris [5] = organism: Canis familiaris; test: Decrease in Vmax in isolated canine Purkinje fibers at 10 uM; type: functional, Canis lupus familiaris, Purkinje fiber
# [6] = pKa1 was determined; type: physicochemical; settings: read-out: pKa1
# Canis familiaris [7] = test: Efficacy in blocking sustained ventricular tachycardia (rate>250 bpm) elicited by programmed electrical stimulation in 4 anesthetized dogs after iv administration of dose 1 mg/kg; no. of successful exp / total no. of exp = 4/4; type: functional, Canis lupus familiaris, Cardiac ventricle
# Canis familiaris [8] = organism: Canis familiaris; test: Concentration required for 20% increase in the functional refractory period of canine ventricular muscle (extracellular electrophysiology) in vitro was reported. Range is between 9-35; design: species or system Canis lupus familiaris
# Canis familiaris [9] = test: Efficacy in blocking sustained ventricular tachycardia (rate>250 bpm) elicited by programmed electrical stimulation in conscious dogs. Administered orally at a dose of 2.5 mg/kg after iv administration; no. of successful exp / total no. of exp = 5 /6; type: functional, Canis lupus familiaris, Cardiac ventricle; settings: route oral
# [10] = Bioavailability after peroral administration (3 mg/kg) in dog was determined; Range 41-98%; type: ADME, organism-based, Canis lupus familiaris; settings: in vivo, po, read-out: Bioavailabiility
# [11] = Half life period was determined; settings: dog
# Mus musculus = test: Acute toxicity after intraperitoneal administration in mouse was determined; range 250-300 mg/kg; type: functional; settings: ip
# Canis familiaris [12] = organism: Canis familiaris; test: Concentration required for 20% increase in action potential duration of canine Purkinje fiber (intracellular electrophysiology) in vitro measured at 95% repolarization was reported. RAnge is between 2.0-11.4; type: functional, Canis lupus familiaris
# [13] = pKa2 was determined; type: physicochemical; settings: read-out: pKa2
# Canis familiaris [14] = organism: Canis familiaris; test: Concentration required for 20% increase in action potential duration of canine Purkinje fiber (intracellular electrophysiology) in vitro measured at 95% repolarization was reported. Range is between 0.2-5; type: functional, Canis lupus familiaris
# Canis familiaris [15] = organism: Canis familiaris; test: Concentration required for 20% increase in the functional refractory period of canine ventricular muscle (extracellular electrophysiology) in vitro was reported, range is 0.3-1.1; design: species or system Canis lupus familiaris
# Canis familiaris [16] = test: Efficacy in blocking sustained ventricular tachycardia (rate>250 bpm) elicited by programmed electrical stimulation in anesthetized dogs after iv administration of dose 0.8 mg/kg; no. of successful exp / total no. of exp = 5/9; type: functional, Canis lupus familiaris, Cardiac ventricle
# Canis familiaris [17] = organism: Canis familiaris; test: Concentration required for 20% increase in action potential duration of canine Purkinje fiber (intracellular electrophysiology) in vitro measured at 95% repolarization was reported. Range is between 9-63; type: functional, Canis lupus familiaris
# Canis familiaris [18] = organism: Canis familiaris; test: Concentration required for 20% increase in the functional refractory period of canine ventricular muscle (extracellular electrophysiology) in vitro was reported. Range is between 9-4000; design: species or system Canis lupus familiaris
# Canis familiaris [19] = test: Efficacy in blocking sustained ventricular tachycardia (rate>250 bpm) elicited by programmed electrical stimulation in anesthetized dogs after iv administration of dose 1 mg/kg; no. of successful exp / total no. of exp = 2/7; type: functional, Canis lupus familiaris, Cardiac ventricle
# Canis familiaris [20] = test: Efficacy in blocking sustained ventricular tachycardia (rate>250 bpm) elicited by programmed electrical stimulation in conscious dogs after iv administration of dose 3 mg/kg; no. of successful exp / total no. of exp = 4/4; type: functional, Canis lupus familiaris, Cardiac ventricle
# Canis familiaris [21] = test: Efficacy in blocking sustained ventricular tachycardia (rate>250 bpm) elicited by programmed electrical stimulation in anesthetized dogs after iv administration of dose 1.4 mg/kg; no. of successful exp / total no. of exp = 3/5; type: functional, Canis lupus familiaris, Cardiac ventricle
# Canis familiaris [22] = organism: Canis familiaris; test: Concentration required for 20% increase in the functional refractory period of canine ventricular muscle (extracellular electrophysiology) in vitro was reported. Range is between 1.6-25; design: species or system Canis lupus familiaris
# Canis familiaris [23] = organism: Canis familiaris; test: Concentration required for 20% increase in action potential duration of canine Purkinje fiber (intracellular electrophysiology) in vitro measured at 95% repolarization was reported. Range is between 1.0-34; type: functional, Canis lupus familiaris
# Canis familiaris [24] = organism: Canis familiaris; test: Concentration required for 20% increase in the functional refractory period of canine ventricular muscle (extracellular electrophysiology) in vitro was reported;NR means not reached; settings: Canis lupus familiaris
# Canis familiaris [25] = organism: Canis familiaris; test: Concentration required for 20% increase in action potential duration of canine Purkinje fiber (intracellular electrophysiology) in vitro measured at 95% repolarization was reported;NR means not reached; type: functional; settings: Canis lupus familiaris
# Canis familiaris [26] = organism: Canis familiaris; test: Concentration required for 20% increase in the functional refractory period of canine ventricular muscle (extracellular electrophysiology) in vitro was reported; NR means not reached; settings: Canis lupus familiaris
# Canis familiaris [27] = organism: Canis familiaris; test: Concentration required for 20% increase in action potential duration of canine Purkinje fiber (intracellular electrophysiology) in vitro measured at 95% repolarization was reported. Range is between 0.08-5; type: functional, Canis lupus familiaris
# Canis familiaris [28] = organism: Canis familiaris; test: Concentration required for 20% increase in the functional refractory period of canine ventricular muscle (extracellular electrophysiology) in vitro was reported. Range is between 0.8-11; design: species or system Canis lupus familiaris
# Canis familiaris [29] = organism: Canis familiaris; test: Concentration required for 20% increase in the functional refractory period of canine ventricular muscle (extracellular electrophysiology) in vitro was reported. Range is between 5.6-800; design: species or system Canis lupus familiaris
# Canis familiaris [30] = organism: Canis familiaris; test: Concentration required for 20% increase in action potential duration of canine Purkinje fiber (intracellular electrophysiology) in vitro measured at 95% repolarization was reported. NR means 10% increase in APD95 (C10APD95) was observed at 30 um(22; type: functional; settings: Canis lupus familiaris
# Canis familiaris [31] = test: Efficacy in blocking sustained ventricular tachycardia (rate>250 bpm) elicited by programmed electrical stimulation in anesthetized dogs after iv administration of dose 9 mg/kg; no. of successful exp / total no. of exp = 4/4; type: functional, Canis lupus familiaris, Cardiac ventricle
# Canis familiaris [32] = organism: Canis familiaris; test: Concentration required for 20% increase in action potential duration of canine Purkinje fiber (intracellular electrophysiology) in vitro measured at 95% repolarization was reported. Range is between 1.8-2.0; type: functional, Canis lupus familiaris
# Canis familiaris [33] = organism: Canis familiaris; test: Concentration required for 20% increase in action potential duration of canine Purkinje fiber (intracellular electrophysiology) in vitro measured at 95% repolarization was reported. Range is between 0.2-0.5; type: functional, Canis lupus familiaris
# Canis familiaris [34] = organism: Canis familiaris; test: Concentration required for 20% increase in the functional refractory period of canine ventricular muscle (extracellular electrophysiology) in vitro was reported; design: species or system Canis lupus familiaris
# Canis familiaris [35] = test: Efficacy in blocking sustained ventricular tachycardia (rate>250 bpm) elicited by programmed electrical stimulation in anesthetized dogs after iv administration of dose 1.0 mg/kg; no. of successful exp / total no. of exp = 3/4; type: functional, Canis lupus familiaris, Cardiac ventricle
# Canis familiaris [36] = organism: Canis familiaris; test: Concentration required for 20% increase in the functional refractory period of canine ventricular muscle (extracellular electrophysiology) in vitro was reported. Range is between 1.2-150; design: species or system Canis lupus familiaris
# Canis familiaris [37] = test: Efficacy in blocking sustained ventricular tachycardia (rate>250 bpm) elicited by programmed electrical stimulation in conscious dogs after iv administration of 0.8 mg/kg; no. of successful exp / total no. of exp = 5/5; type: functional, Canis lupus familiaris, Cardiac ventricle
# Canis familiaris [38] = test: Efficacy in blocking sustained ventricular tachycardia (rate>250 bpm) elicited by programmed electrical stimulation in anesthetized dogs after iv administration of 0.5 mg/kg; no. of successful exp / total no. of exp = 4/4; type: functional, Canis lupus familiaris, Cardiac ventricle
# Canis familiaris [39] = test: Efficacy in blocking sustained ventricular tachycardia (rate>250 bpm) elicited by programmed electrical stimulation in conscious dogs after iv administration of dose 0.5 mg/kg; no. of successful exp / total no. of exp = 4/4; type: functional, Canis lupus familiaris, Cardiac ventricle
# Canis familiaris [40] = organism: Canis familiaris; test: Concentration required for 20% increase in the functional refractory period of canine ventricular muscle (extracellular electrophysiology) in vitro was reported. Range is between 0.05-3.7; design: species or system Canis lupus familiaris
# Canis familiaris [41] = organism: Canis familiaris; test: Concentration required for 20% increase in action potential duration of canine Purkinje fiber (intracellular electrophysiology) in vitro measured at 95% repolarization was reported. Range is between 0.01-0.03; type: functional, Canis lupus familiaris
# Canis familiaris [42] = organism: Canis familiaris; test: Concentration required for 20% increase in action potential duration of canine Purkinje fiber (intracellular electrophysiology) in vitro measured at 95% repolarization was reported; NR means not reached; type: functional; settings: Canis lupus familiaris
structure (smiles),measurement,setting,value
CCCCCCC[N+](CC)(CC)CCCCc1ccc(Cl)cc1 [CLOFILIUM],Efficacy,Canis familiaris [1],7
same,Efficacy,Canis familiaris [2],5
same,C20 FRP,Canis familiaris [3],Partially active
same,C20 APD95,Canis familiaris [4],0.2 µM
same,delta Vmax,Canis familiaris [5],-18%
CCN(CC)CCNC(=O)c1ccc(NS(C)(=O)=O)cc1.Cl [SEMATILIDE HYDROCHLORIDE],pKa,[6],7.6
same,Efficacy,Canis familiaris [7],4
same,C20 FRP,Canis familiaris [8],17 µM
same,Efficacy,Canis familiaris [9],5
same,bioavailability,[10],41%
same,half-life,[11],162 min
same,LD50,Mus musculus,250 mg/kg
same,C20 APD95,Canis familiaris [12],3.5 µM
same,pKa,[13],9.51
C=CCN(CCN(CC)CC)C(=O)c1ccc(NS(C)(=O)=O)cc1,C20 APD95,Canis familiaris [14],0.5 µM
same,C20 FRP,Canis familiaris [15],0.5 µM
same,Efficacy,Canis familiaris [16],5
CC(C)NCC(O)c1ccc(NS(C)(=O)=O)cc1 (racemic) [SOTALOL],C20 APD95,Canis familiaris [17],22 µM
same,C20 FRP,Canis familiaris [18],52 µM
same,Efficacy,Canis familiaris [19],2
same,Efficacy,Canis familiaris [20],4
CCN(CC)CCCNC(=O)c1ccc(NS(C)(=O)=O)cc1,Efficacy,Canis familiaris [21],3
same,C20 FRP,Canis familiaris [22],4 µM
same,C20 APD95,Canis familiaris [23],2 µM
CCNCCNC(=O)c1ccc(NS(C)(=O)=O)cc1,C20 FRP,Canis familiaris [24],Not reached
same,C20 APD95,Canis familiaris [25],Not reached
CCN(CC)CCNC(=O)c1ccc(N(C)S(C)(=O)=O)cc1,C20 FRP,Canis familiaris [26],Not reached
same,C20 APD95,Canis familiaris [25],Not reached
CCCCCCCNCCNC(=O)c1ccc(NS(C)(=O)=O)cc1.Cl,C20 APD95,Canis familiaris [27],0.2 µM
same,C20 FRP,Canis familiaris [28],4 µM
CCN(CC)CCNC(=O)c1ccc(NS(=O)(=O)C(F)(F)F)cc1,C20 FRP,Canis familiaris [24],Not reached
same,C20 APD95,Canis familiaris [25],Not reached
CCN(CC)CCNC(=O)c1ccc(NC(C)=O)cc1 [ACECAINIDE],C20 FRP,Canis familiaris [29],60 µM
same,C20 APD95,Canis familiaris [30],Partially active
same,Efficacy,Canis familiaris [31],4
CCN(CC)C1CCC(NC(=O)c2ccc(NS(C)(=O)=O)cc2)CC1.Cl (configuration not stated),C20 APD95,Canis familiaris [32],1.9 µM
same,C20 APD95,Canis familiaris [33],0.4 µM
same,C20 FRP,Canis familiaris [34],40 µM
same,Efficacy,Canis familiaris [35],3
same,C20 FRP,Canis familiaris [36],3 µM
same,Efficacy,Canis familiaris [37],5
same,Efficacy,Canis familiaris [38],4
same,Efficacy,Canis familiaris [39],4
CCCCCCCN(CC)CCNC(=O)c1ccc(NS(C)(=O)=O)cc1,C20 FRP,Canis familiaris [40],0.5 µM
same,C20 APD95,Canis familiaris [41],0.02 µM
CCN(CC)CCNC(=O)c1ccc(NS(=O)(=O)CC)cc1,C20 APD95,Canis familiaris [42],Not reached
same,C20 FRP,Canis familiaris [26],Not reached
